Patent US8575203B2, “Chemical compounds” (Boehringer Ingelheim International GmbH, priority 2010, dated 2013)

Molecular target: Recombinant human PDK1 enzyme (aa 52-556) (Homo sapiens (Human), UniProt O15530)
Experiment: PDK1 kinase assay
Format: biochemical
Settings: in vitro kinase assay, His6-PDK1 (aa 52-556), PDKtide, P33-ATP
Experimental: The activity of the compounds according to the invention on the kinase PDK1 which inhibits the signal transduction pathway is determined in an in vitro kinase assay with recombinantly prepared protein:
Recombinant human PDK1 enzyme (aa 52-556) linked at its N-terminal end to His6 is isolated from baculovirus-infected insect cells. Purified enzyme may be obtained for example from the University of Dundee, Scotland. The following components are combined in a well of a 96-well round-based dish (Greiner bio-one, No. 650101): • 15 μL of compound to be tested in varying concentrations (e.g. starting at 10 μM, and diluted in steps of 1:5) in APT buffer (50 mM Tris/Cl pH 7.5; 0.05% β-mercaptoethanol; 10 mM Mg-acetate; 0.0166% Tween 20; 3.33% DMSO) • 15 μL His6-PDK1 (aa 52-556) 3.33 ng/well) and PDKtide ([…]), synthesised by Pepceuticals Limited, Nottingham, United Kingdom; 25 μM final concentration); His6-PDK1 and PDKtide are together diluted accordingly in assay buffer (50 mM tris pH 7.5, 0.05% β-mercaptoethanol, 10 mM Mg-acetate); PDKtide is present in this mixture as an 83.3 μM solution. These 30 μl are routinely incubated for 30 min at RT. • 20 μL ATP solution (25 μM ATP with 1.0 μCi/well gamma-P33-ATP). The final concentration of Tween 20 is 0.005%.
The reaction is started by adding the ATP solution and the mixture is incubated for 90 min at RT. At the start of the reaction the dishes are shaken gently. The reaction is stopped by the addition of 50 μL/well of 500 mM phosphoric acid (H3PO4) and incubated for about 20 min at RT. The precipitate is transferred by harvesting onto filter plates (96-well microtitre filter plate: UniFilter GF/C; Perkin Elmer; No. 6005174), then washed 6 times with 50 mM H3PO4 and dried at 60° C. Then the plate is stuck down with sealing tape, 25 μL/well of scintillation solution (Microscint 0; Perkin Elmer; No. 6013611) are added and the amount of P33 precipitated is measured using the Wallac Betacounter. The measured data are evaluated using Graphpad Prism software.

Sequence of Recombinant human PDK1 enzyme (aa 52-556) (O15530 52-556): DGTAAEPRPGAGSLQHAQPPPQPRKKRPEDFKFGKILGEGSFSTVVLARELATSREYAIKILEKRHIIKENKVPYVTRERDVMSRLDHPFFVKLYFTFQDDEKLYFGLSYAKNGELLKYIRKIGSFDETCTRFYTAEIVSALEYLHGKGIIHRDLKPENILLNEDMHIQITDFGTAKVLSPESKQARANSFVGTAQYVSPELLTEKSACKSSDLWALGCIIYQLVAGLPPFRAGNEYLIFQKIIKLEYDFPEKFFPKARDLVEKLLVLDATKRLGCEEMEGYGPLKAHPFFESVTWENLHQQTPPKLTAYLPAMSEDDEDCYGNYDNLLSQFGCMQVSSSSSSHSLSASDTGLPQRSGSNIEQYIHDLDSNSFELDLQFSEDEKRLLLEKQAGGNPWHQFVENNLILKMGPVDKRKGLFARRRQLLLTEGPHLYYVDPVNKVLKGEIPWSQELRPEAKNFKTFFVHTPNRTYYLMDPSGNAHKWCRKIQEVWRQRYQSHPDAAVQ

IC50 [nM]	SMILES
64	C=C(C)c1cnc2ccc(C#CCNC(=O)c3cncn(Cc4ccc(F)c(F)c4)c3=O)cc2n1 [I-69]
1	CN1CCC(Nc2cnc3ccc(C#CCNC(=O)c4cncn(Cc5ccc(F)c(F)c5)c4=O)cc3c2)CC1 [I-70]
4	CCN1CCC(Nc2cnc3ccc(C#CCNC(=O)c4cncn(Cc5ccc(F)c(F)c5)c4=O)cc3c2)CC1 [I-71]
2	CCN1CCC(Nc2cnc3ccc(C#CCNC(=O)c4cccn(Cc5ccc(F)c(F)c5)c4=O)cc3c2)CC1 [I-72]
4	COCCN1CCC(Nc2cnc3ccc(C#CCNC(=O)c4cncn(Cc5ccc(F)c(F)c5)c4=O)cc3c2)CC1 [I-73]
8	COCCN1CCC(Nc2cnc3ccc(C#CCNC(=O)c4cccn(Cc5ccc(F)c(F)c5)c4=O)cc3c2)CC1 [I-74]
1	CCN1CCC(Nc2cnc3ccc(C#CCNC(=O)c4cccn([C@@H](C)c5ccc(F)c(F)c5)c4=O)cc3c2)CC1 [I-75]
2	CCN1CCC(Nc2cnc3ccc(C#CCNC(=O)c4cccn([C@H](CO)c5cccc(F)c5)c4=O)cc3c2)CC1 [I-76]
4	COCCN1CCC(Nc2cnc3ccc(C#CCNC(=O)c4cccn([C@@H](CO)c5ccc(F)c(F)c5)c4=O)cc3c2)CC1 [I-77]
9	COCCN1CCC(Nc2cnc3ccc(C#CCNC(=O)c4cccn([C@@H](C)c5ccc(F)c(F)c5)c4=O)cc3c2)CC1 [I-78]
80	Cc1c(C#CCNC(=O)c2cncn(Cc3ccc(F)c(F)c3)c2=O)ccc2ncc(-c3ccccc3)cc12 [I-79]
132	O=C(NCC#Cc1ccc2ncccc2c1)c1cncn(Cc2ccc(F)c(F)c2)c1=O [I-80]
66	O=C(NCC#Cc1ccc2ncc(-c3ccccc3)cc2c1)c1cncn(Cc2ccc(F)c(F)c2)c1=O [I-81]
119	COC(=O)c1cnc2ccc(C#CCNC(=O)c3cncn(Cc4ccc(F)c(F)c4)c3=O)c(C)c2c1 [I-82]
62	Cc1c(C#CCNC(=O)c2cncn(Cc3ccc(F)c(F)c3)c2=O)ccc2ncc(C(=O)O)cc12 [I-83]
86	O=C(NCC#Cc1ccc2ncc(O)cc2c1)c1cncn(Cc2ccc(F)c(F)c2)c1=O [I-86]
23	O=C(NCC#Cc1ccc2ncc(OC3CCNCC3)cc2c1)c1cncn(Cc2ccc(F)c(F)c2)c1=O [I-87]
15	CN(C)CCCOc1ccnc2ccc(C#CCNC(=O)c3cncn(Cc4ccc(F)c(F)c4)c3=O)cc12 [I-88]
23	CN(C)CCCN(C)c1ccnc2ccc(C#CCNC(=O)c3cncn(Cc4ccc(F)c(F)c4)c3=O)cc12 [I-89]
110	CN(C)c1ccnc2ccc(C#CCNC(=O)c3cncn(Cc4ccc(F)c(F)c4)c3=O)cc12 [I-90]
38	COc1ccnc2ccc(C#CCNC(=O)c3cncn(Cc4ccc(F)c(F)c4)c3=O)cc12 [I-91]
33	CCOc1ccnc2ccc(C#CCNC(=O)c3cncn(Cc4ccc(F)c(F)c4)c3=O)cc12 [I-95]
38	CC(C)Oc1ccnc2ccc(C#CCNC(=O)c3cncn(Cc4ccc(F)c(F)c4)c3=O)cc12 [I-97]
36	CN(C)CCOc1ccnc2ccc(C#CCNC(=O)c3cncn(Cc4ccc(F)c(F)c4)c3=O)cc12 [I-99]
14	CN1CCN(CCCOc2ccnc3ccc(C#CCNC(=O)c4cncn(Cc5ccc(F)c(F)c5)c4=O)cc23)CC1 [I-100]
5	CN1CCCC(COc2ccnc3ccc(C#CCNC(=O)c4cccn(Cc5ccc(F)c(F)c5)c4=O)cc23)C1 (stereo not shown) [I-101]
13	CN(C)CC(C)(C)COc1ccnc2ccc(C#CCNC(=O)c3cncn(Cc4ccc(F)c(F)c4)c3=O)cc12 [I-102]

SMILES	IC50 [nM]
COc1ccnc2ccc(C#CCNC(=O)c3cccn(Cc4ccc(F)c(F)c4)c3=O)cc12 [I-92]	128
CN(C)CCCOc1ccnc2ccc(C#CCNC(=O)c3cccn(Cc4ccc(F)c(F)c4)c3=O)cc12 [I-93]	12
CCOc1ccnc2ccc(C#CCNC(=O)c3cccn(Cc4ccc(F)c(F)c4)c3=O)cc12 [I-94]	55
CN(C)CCOc1ccnc2ccc(C#CCNC(=O)c3cccn(Cc4ccc(F)c(F)c4)c3=O)cc12 [I-98]	25
